In patent US12410162B2, “Pyrazole acylhydrazone containing trifluoromethylthiadiazole units, preparation method and use thereof” (NANTONG UNIVERSITY, priority 2020, dated 2025):

Test system: Mycosphaerella melonis
Test: Screening of bactericidal activity against Mycosphaerella melonis (toxic medium method)
Assay type: cell-based
Details: test concentration 200 μg/mL, 24-26° C. in the dark
Experimental: Screening of the Bactericidal Activity of the Samples Against Mycosphaerella melonis The toxic medium method was used to determine the antibacterial activity of the target against Mycosphaerella melonis. First the drug solution was added to the culture medium, then the bacterial cake was placed on the culture medium, the petri dish was placed in a 24-26° C. incubator in the dark, and then cultured at a constant temperature. Then according to the growth rate of pathogenic bacteria, when the diameter of the control was to about 8 cm, the antibacterial rate % was calculated. The test concentration was 200 μg/mL (the drug solution with other concentrations was obtained by diluting the drug solution with the concentration of 200 μg/mL).

| Compound | Mycosphaerella melonis (inhibition ratio, %) |
| --- | --- |
| Cc1nn(C)c(Oc2cccc(Cl)c2)c1C=NNC(=O)c1snnc1C(F)(F)F [Ia] | 100% |
| Cc1nn(C)c(Oc2cccc(Br)c2)c1C=NNC(=O)c1snnc1C(F)(F)F [Ib] | 100% |
| Cc1nn(C)c(Oc2ccc(F)cc2F)c1C=NNC(=O)c1snnc1C(F)(F)F [Ic] | 90% |
| Cc1nn(C)c(Oc2ccc(Cl)cc2Cl)c1C=NNC(=O)c1snnc1C(F)(F)F [Id] | 100% |
